What was measured:
thrombin = molecular target: T1, thrombin (Equus caballus, UniProt F7BFJ1); test: Thrombin time; format: biochemical, horse thrombin, human plasma; conditions: 37° C.; for TT5 (thrombin time as a difference to the control): 5 μM active substance in human plasma; for TT50 (thrombin time as a difference to the control): 50 μM active substance in human plasma
T1 construct: mature thrombin (light and heavy chain) cut from prothrombin; clotting of human fibrinogen
Method: A conventional test in clinical coagulation diagnostics is the thrombin time. This parameter measures the action of thrombin on fibrinogen and the formation of clots. Inhibitors of thrombin result in an extended thrombin time.
In order to obtain plasma 9 parts of fresh blood from healthy donors was mixed with one part of sodium citrate solution (0.11 mol/l) and it was centrifuged for 10 minutes at room temperature at ca. 3000 r.p.m. The plasma was removed by pipette and can be stored at room temperature for ca. 8 hours.
200 μl citrate plasma was incubated for 2 minutes at 37° C. in a ball coagulometer (KC10 from the Amelung Company). 10 μl dimethylsulfoxide (DMSO) or a solution of the active substance in DMSO was added to 190 μl pre-heated thrombin reagent (Boehringer Mannheim GmbH; contains ca. 3 U/ml horse thrombin and 0.0125M Ca^++). On addition of this 200 μl solution to the plasma a stopwatch was started and the time at which coagulation starts was determined.
The measured thrombin times in seconds are given in the following table as a difference to the control. The concentrations of the active substances in human plasma were 50 μM (TT50) and 5 μM (TT5).

human α thrombin = molecular target: T2, human α thrombin (Homo sapiens, UniProt P00734); test: Thrombin inhibition; format: biochemical; conditions: pH=7.5, 25° C., substrate H-(D)-Phe-Pro-Arg-pNA
T2 construct: human α thrombin; purchased Sigma
Method: The kinetic measurements were carried out in 0.1M phosphate buffer that contained 0.2M sodium chloride and 0.5% polyethylene glycol 6000 at a pH=7.5 and 25° C. with the substrate H-(D)-Phe-Pro-Arg-pNA (Kabi) and human α thrombin (Sigma, specific activity=2150 NIH-units/mg) in polystyrene semi-microcuvettes in a total volume of 1 ml.
In a preliminary test each active substance was determined as to whether it inhibits thrombin rapidly or slowly. For this the reaction was firstly started by adding 0.03 NIH units thrombin to a 100 μM solution of the substrate and the active substance. In a second experiment, substrate was added to a solution of thrombin and the active substance which had been incubated for 5 minutes. The increase in the concentration of p-nitroaniline with time was monitored spectroscopically (UV-VIS spectrophotometer Lambda-2 from the Perkin-Elmer Company) at 405 nm for 12 min.
Since the measured curves obtained in both experiments were linear and parallel, the active substances of the following table are rapid thrombin inhibitors.
The inhibition constants Ki were then determined as follows. The substrate was used at concentrations of 100 μM, 50 μM, 30 μM, 20 μM and at each substrate concentration one measurement was carried out without inhibitor and three measurements were carried out in the presence of various concentrations of the inhibitors listed in the following table. The reactions were started by the addition of thrombin. The increase in absorbance at 405 nm due to the formation of p-nitroaniline was monitored over a time period of 12 minutes. Measurement points (time versus absorbance) were transferred to a PC at intervals of 20 seconds. The rates Vo (change in absorbance per second; measurements without inhibitor) and Vi (measurements with inhibitor) are determined by linear regression. Only that part of each measurement was used in which the substrate concentration had decreased by less than 15%. Km ' and Vmax were determined from a measurement series (constant inhibitor concentration, variable substrate concentrations) by a non-linear fit to the equation [formula] Finally Ki was calculated from the entire series of measurements by non-linear fitting to the equation [formula]
The inhibition constants Ki of the active substances are stated in the following table in units of μM.

Row | SMILES | TT5 (thrombin time as a difference to the control) (thrombin) | TT50 (thrombin time as a difference to the control) (thrombin) | Ki (human α thrombin)
1 | Cc1cc(NS(=O)(=O)c2ccccc2)cc(OCCNc2ccnnc2)c1 [Example 1, N-{3-methyl-5-[2-(pyridazin-4-ylamino)-ethoxy]-phenyl}-benzenesulfonamide] | 23 s | 126 s | 70 nM
2 | Cc1cc(OCCNc2ccnnc2)cc(OS(=O)(=O)c2cccnc2)c1 [Example 4] | 38 s | 194 s | 60 nM
3 | Cc1cc(OCCNc2ccnnc2)cc(OS(=O)(=O)c2cccc(C#N)c2)c1 [Example 9, 3-Cyanobenzenesulfonic acid-3-methyl-5-[2-(pyridazin-4-ylamino)-ethoxy]-phenyl ester] | 31 s | 128 s | 140 nM
4 | Cc1cc(OCCNc2ccnnc2)cc(OS(=O)(=O)c2cccc(C(N)=S)c2)c1 [Example 10, 3-Thiocarbamoyl-benzenesulfonic acid-3-methyl-5-[2-(pyridazin-4-ylamino)-ethoxy]-phenyl ester] | 13 s | 71 s | 170 nM
5 | Cc1cc(OCCNc2ccnnc2)cc(OS(=O)(=O)c2ccc(C#N)cc2)c1 [Example 11, 4-Cyanobenzenesulfonic acid-3-methyl-5-[2-(pyridazin-4-ylamino)-ethoxy]-phenyl ester] | 18 s | 81 s | 200 nM
6 | CCOC(=O)COc1cccc(S(=O)(=O)Oc2cc(C)cc(OCCNc3ccnnc3)c2)c1 [Example 13, (3-{3-Methyl-5-[2-(pyridazin-4-ylamino)-ethoxy]-phenoxy-sulfonyl}-phenoxy)-acetic acid ethyl ester] | 0 s | 49 s | 90 nM
7 | Cc1cc(NS(=O)(=O)C2CCCCC2)cc(OCCNc2ccnnc2)c1 [Example 22, N-{3-Methyl-5-[2-(pyridazin-4-ylamino)-ethoxy]-phenyl}-cyclohexanesulfonamide] | 11 s | 90 s | 350 nM

Reference: patent US5795892A, “4-aminopyridazines, method of preparing them and drugs containing these compounds” (Boehringer Manneim GmbH, priority 1994, dated 1998)
